Read-outs that look alike come from different tables or passages of the source.
Molecular target: T1, human GPR119 (Homo sapiens, UniProt Q8TDV5)
T1 sequence (Q8TDV5 1-308 limits assumed): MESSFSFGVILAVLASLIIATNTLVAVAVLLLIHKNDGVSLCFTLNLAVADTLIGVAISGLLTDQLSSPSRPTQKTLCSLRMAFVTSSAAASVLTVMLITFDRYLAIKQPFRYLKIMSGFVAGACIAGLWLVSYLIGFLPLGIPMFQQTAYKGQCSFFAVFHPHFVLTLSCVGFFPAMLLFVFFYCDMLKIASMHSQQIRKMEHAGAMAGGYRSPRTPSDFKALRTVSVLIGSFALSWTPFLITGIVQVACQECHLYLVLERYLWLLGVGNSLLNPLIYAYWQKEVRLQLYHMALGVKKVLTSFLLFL
Assay: Measurement of GPR119 signaling (cAMP assay) in cells stably transfected with human GPR119
Format: cell-based
Settings: cAMP stimulation
Protocol: Measurement of GPR119 Signaling (Cyclic AMP (cAMP) Assay)
The adenylate cyclase assay was constructed following the LANCE™ cAMP Kit (Perkin Elmer, AD0264) instructions.
The reaction was stopped by incubating with the supplied detection buffer containing the europium chelate of the Eu-SA/Biotin-cAMP tracer for 3 hours. The assay was performed in duplicate in a 384 well plate for duplicate plates and fluorescence was measured at 665 nm. Basal activity was determined using a DMSO control and maximum response was defined as cAMP stimulation produced by an internal agonist control. Standard cAMP concentrations were assayed concurrently for conversion of fluorescence signal to cAMP level. The data was analyzed using 4-parameter curve fit in Microsoft Excel.
Measurement of GPR119 Signaling (cAMP Homogenous Time Resolved Fluorescence (HTRF) Assay)
Chinese hamster ovary (CHO) cell lines stably transfected with the permissive guanine nucleotide binding protein alpha 15 (Gα15) and murine GPR119 were maintained in DMEM media containing FBS, penicillin-streptomycin, puromycin, and G418 (geneticin). […] Agonist activation of the GPR119 receptor was measured in receptor transfected cells described above, treated with compounds of this invention, using a commercial homogenous time resolved fluorescence (HTRF) kit for measurement of cAMP (CisBio, Bedford, Mass.). The assay was performed in 96-well half-volume plates (murine) or 384-well plates (human) following the manufacturers instructions. Briefly, suspended cells were incubated with a dose titration of test compound at RT for 60 min, lysed, and incubated with HTRF reagents for an additional 60 min. The plate was read using an Envision multilabel reader (Perkin Elmer) adjusted to read time resolved fluorescence and the cAMP concentrations were extrapolated from a cAMP calibration curve. […] The concentration of test compound required to stimulate a half-maximal response (EC50), and efficacy as compared to an internal agonist control, was determined from a sigmoidal 4-parameter curve fit of the resulting plot of normalized activity versus compound concentration.

[1] = table column, human GPR119, read-out: GPR119 Human EC50
[2] = stated in the example text, human GPR119, read-out: GPR119 Human EC50

Structure (SMILES)	EC50 [1] [nM]	further results
CS(=O)(=O)c1ccc(OCC[C@@H]2C[C@@H]2C2CCN(c3nc(C4CCC4)no3)CC2)nc1 [Example 212]	4.8	
CC(C)c1noc(N2CCC([C@H]3C[C@H]3CCOc3ccc(CC(=O)NC4(C(F)(F)F)CC4)c(F)c3)CC2)n1 [Example 153]	4.3	
CC1(OC(=O)N2CCC([C@H]3C[C@H]3CCOc3ccc(CC(=O)N4CC(F)C4)c(F)c3)CC2)CC1 [Example 63]		EC50 (read-out: GPR119 HumC EC50): 0.88 nM
CS(=O)(=O)c1ccc(OCC[C@@H]2C[C@@H]2C2CCN(c3noc(C4CCC4)n3)CC2)nc1 [Example 241]	4	
CS(=O)(=O)c1ccc(OCC[C@@H]2C[C@@H]2C2CCN(c3noc(C4(C(F)(F)F)CC4)n3)CC2)nc1 [Example 244]	2.1	
COCc1noc(N2CCC([C@H]3C[C@H]3CCOc3ccc(CC(=O)N4CCOCC4)c(F)c3)CC2)n1 [Example 202]	9.8	
CCOCc1noc(N2CCC([C@H]3C[C@H]3CCOc3ccc(S(C)(=O)=O)cn3)CC2)n1 [Example 218]	14	
CC(C)c1noc(N2CCC([C@H]3C[C@H]3CCOc3ccc(CC(=O)N(C)Cc4cncs4)c(F)c3)CC2)n1 [Example 171]	1.5	
CCCOC(=O)N1CCC([C@H]2C[C@H]2CCOc2ccc(-n3cnnn3)cc2)CC1 [Example 7]	0.8	
CC(C)(C)CC(=O)N1CCC([C@H]2C[C@H]2CCOc2ccc(S(C)(=O)=O)cn2)CC1 [Example 89]	16	
CC(C)OC(=O)N1CCC([C@H]2C[C@H]2CCOc2cc(F)c(C(=O)NC3CC3)c(F)c2)CC1 [Example 58]		EC50 [2]: 3.5 nM
Cc1nc2c(o1)CN(C(=O)Cc1ccc(OCC[C@@H]3C[C@@H]3C3CCN(c4nc(C(C)C)no4)CC3)cc1F)CC2 [Example 183]	2.1	
CC(C)c1noc(N2CCC([C@H]3C[C@H]3CCOc3ccc(CC(=O)N4CCc5oncc5C4)c(F)c3)CC2)n1 [Example 177]	1.8	
Cc1cc(-n2cnnn2)cnc1OCC[C@@H]1C[C@@H]1C1CCN(C(=O)OC2(C)CC2)CC1 [Example 30, 1-methylcyclopropyl 4-[(1R,2S)-2-(2-{[3-methyl-5-(1H-tetrazol-1 yl)pyridin-2-yl]oxy}ethyl)cyclopropyl]piperidine-1-carboxylate]		EC50 [2]: 0.7 nM
CC1(COC(=O)N2CCC([C@H]3C[C@H]3CCOc3ccc(S(C)(=O)=O)cn3)CC2)CCC1 [Example 26]	0.6	
CC(C)c1noc(N2CCC([C@H]3C[C@H]3CCOc3ccc(CC(=O)N4CCC(F)(F)CC4)c(F)c3)CC2)n1 [Example 148]	1.7	
CC(C)c1noc(N2CCC([C@H]3C[C@H]3CCOc3ccc(CC(=O)N4CCc5cccnc5C4)c(F)c3)CC2)n1 [Example 181]	3.7	
O=C(CC1CCC1)N1CCC([C@H]2C[C@H]2CCOc2ccc(-n3cnnn3)cc2)CC1 [Example 81]	15	
Cc1cc(CC(=O)N2CC(F)(F)C2)cnc1OCC[C@@H]1C[C@@H]1C1CCN(c2nc(C(C)C)no2)CC1 [Example 260]	3.8	
CC(C)c1noc(N2CCC([C@H]3C[C@H]3CCOc3ccc(CC(=O)N4CCn5ccnc5C4)c(F)c3)CC2)n1 [Example 180]	4.9	
CC(C)c1noc(N2CCC([C@H]3C[C@H]3CCOc3ccc(CC(=O)N4CCC4)cc3)CC2)n1 [Example 99, 4-[(1R,2S)-2-{2-[4-(2-azetidin-1-yl-2-oxoethyl)phenoxy]ethyl}cyclopropyl]-1-[3-(1-methylethyl)-1,2,4-oxadiazol-5-yl]piperidine]		EC50 [2]: 1.8 nM
CCOC(=O)N1CCC([C@H]2C[C@H]2CCOc2cc(F)c(C(=O)C3CC3)c(F)c2)CC1 [Example 55]	1.1	
CS(=O)(=O)c1ccc(OCC[C@@H]2C[C@@H]2C2CCN(c3noc(CC4CC4)n3)CC2)nc1 [Example 243]	9.8	

Structure (SMILES)	EC50 [1] [nM]	further results
CC(C)CC(=O)N1CCC([C@H]2C[C@H]2CCOc2ccc(S(C)(=O)=O)c(F)c2)CC1 [Example 94]	19	
COCc1noc(N2CCC([C@H]3C[C@H]3CCOc3cc(F)c(CC(=O)N4CC(F)C4)c(F)c3)CC2)n1 [Example 116, 4-[(1R,2S)-2-(2-{3,5-difluoro-4-[2-(3-fluoroazetidin-1-yl)-2-oxoethyl]phenoxy}ethyl)cyclopropyl]-1-[3-(methoxymethyl)-1,2,4-oxadiazol-5-yl]piperidine]		EC50 [2]: 1.4 nM
CC(C)c1noc(N2CCC([C@H]3C[C@H]3CCOc3ccc(CC(=O)N4CCn5nc(C(F)(F)F)nc5C4)c(F)c3)CC2)n1 [Example 194]	1.5	
CC1(OC(=O)N2CCC([C@H]3C[C@H]3CCOc3ccc(CC(=O)N4CCOCC4)c(F)c3)CC2)CC1 [Example 67]		EC50 (read-out: GPR119 HumC EC50): 8.5 nM
CC(C)c1noc(N2CCC([C@H]3C[C@H]3CCOc3ccc(CC(=O)N(C)C)cc3)CC2)n1 [Example 137]	6.7	
COCCc1noc(N2CCC([C@H]3C[C@H]3CCOc3ncc(-n4cnnn4)cc3C)CC2)n1 [Example 228]	2	
CCc1nc(N2CCC([C@H]3C[C@H]3CCOc3ccc(S(C)(=O)=O)cn3)CC2)no1 [Example 233, 2-(2-{(1S,2R)-2-[1-(5-ethyl-1,2,4-oxidiazol-5-yl)piperidin-4-yl]cyclopropyl}ethoxy)-5-(methylsulfonyl)pyridine]		EC50 [2]: 9.2 nM
COCc1noc(N2CCC([C@H]3C[C@H]3CCOc3cc(F)c(CC(=O)N4CCC4)c(F)c3)CC2)n1 [Example 205]	1.2	
CC(C)c1noc(N2CCC([C@H]3C[C@H]3CCOc3ccc(Cc4nncs4)c(F)c3)CC2)n1 [Example 257]	1.4	
CC1(OC(=O)N2CCC([C@H]3C[C@H]3CCOc3ccc(CC(=O)N4CCC4)c(F)c3)CC2)CC1 [Example 59, 1-methylcyclopropyl 4-[(1R,2S)-2-(2-{4-[2-(azetidin-1-yl)-2-oxoethyl]-3-fluorophenoxy}ethyl)cyclopropyl]piperidine-1-carboxylate]		EC50 [2]: 3.3 nM
CCN(CC)C(=O)Cc1ccc(OCC[C@@H]2C[C@@H]2C2CCN(c3nc(C(C)C)no3)CC2)cc1F [Example 144]	1.8	
CC(C)c1noc(N2CCC([C@H]3C[C@H]3CCOc3ccc(CC(=O)N4CCC4)c(C#N)c3)CC2)n1 [Example 105]		EC50 (read-out: GPR119 HumC EC50): 2 nM
CS(=O)(=O)c1ccc(OCC[C@@H]2C[C@@H]2C2CCN(c3noc(C4CCCC4)n3)CC2)nc1 [Example 242]	11.6	
COCc1noc(N2CCC([C@H]3C[C@H]3CCOc3ccc(-c4nnn(C)n4)cc3)CC2)n1 [Example 224]	6.4	
CC1(OC(=O)N2CCC([C@H]3C[C@H]3CCOc3ccc(CC(=O)N4CCC4)cc3)CC2)CC1 [Example 57]		EC50 [2]: 5.9 nM
COCc1noc(N2CCC([C@H]3C[C@H]3CCOc3cc(F)c(CC(=O)N4CCOCC4)c(F)c3)CC2)n1 [Example 207]	3.1	
O=C(CC1CCCCC1)N1CCC([C@H]2C[C@H]2CCOc2ccc(-n3cnnn3)cc2)CC1 [Example 77, 1-(cyclohexylacetyl)-4-((1R,2S)-2-{2-[4-(1H-tetrazol-1-yl)phenoxy]ethyl}cyclopropyl)piperidine]		EC50 [2]: 11.8 nM
CS(=O)(=O)c1ccc(OCC[C@@H]2C[C@@H]2C2CCN(c3noc(C4CC4)n3)CC2)nc1 [Example 238]	22	
CC1(OC(=O)N2CCC([C@H]3C[C@H]3CCOc3cc(F)c(C(=O)C4CC4)c(F)c3)CC2)CC1 [Example 54]	0.7	
Cc1cc(CC(=O)N2CC(C)(O)C2)cnc1OCC[C@@H]1C[C@@H]1C1CCN(c2nc(C(C)C)no2)CC1 [Example 262]	12	
CC(C)c1noc(N2CCC([C@H]3C[C@H]3CCOc3ccc(CC(=O)N4CCc5[nH]nnc5C4)c(F)c3)CC2)n1 [Example 197]	2.9	
COCc1noc(N2CCC([C@H]3C[C@H]3CCOc3ccc(CC(=O)N(C)C)c(F)c3)CC2)n1 [Example 201]	5.9	
CC1(COC(=O)N2CCC([C@H]3C[C@H]3CCOc3ccc(CC(=O)N4CCC4)c(F)c3)CC2)CC1 [Example 72]		EC50 (read-out: GPR119 HumC EC50): 3.6 nM

From patent US8957062B2, “Substituted cyclopropyl compounds, compositions containing such compounds and methods of treatment” (Merck Sharp & Dohme Corp., priority 2011, dated 2015)
